# Results as given in patent US20240327428A1, “Inhibitors of human immunodeficiency virus replication, method of making and method of using thereof” (ASCLETIS BIOSCIENCE CO., LTD., priority 2023, published 2024).
# Like-named read-outs stand apart in the source and are kept apart here.
# Key:
# Assay type in all cases: cell-based
# HIV-1IIIB = experiment: Inhibition of HIV-1IIIB infection in MT-4 cells (XTT staining); settings: HIV-1IIIB in MT-4 cells; for EC50: 6 days incubation, XTT, read-out: EC50 (50% inhibition of virus replication)
# Method: (§1) The compounds were evaluated for inhibition of HIV-1IIIB infection and cellular toxicity in MT-4 cells.
# (§2) The MT-4 cells and […] used in the HIV-1 inhibition assays were obtained from the AIDS Research and Reference Program (Rockville, MD) and propagated as recommended by the supplier.
# (§3) Fifty microliters (50 μL) of MT-4 cells at a density of 1.0×10^4 cells/well in 10% complete RPMI-1640 (10% FBS supplemented with 1% L-glutamine and 1% Penicillin/Streptomycin) media were plated in a 96-well flat bottom plate. One-hundred microliters (100 μL) of each compound at 12 concentrations were added in triplicate followed by 50 μL of HIV-1IIIB at a pre-determined titer. The cultures were incubated for 6 days at 37° C./5% CO2. Following the incubation, the cells were stained with XTT for evaluation of compound efficacy and cellular toxicity, as described below.
# (§4) Efficacy and toxicity values for the test materials were derived by measuring the reduction of the tetrazolium dye XTT (2,3-bis(2-methoxy-4-nitro-5-sulfophenyl)-5-[(phenylamino)carbonyl]-2H-tetrazolium hydroxide). XTT in metabolically active cells is metabolized by the mitochondrial enzyme NADPH oxidase to a soluble formazan product. XTT solution was prepared daily as a stock of 1 mg/mL in RPMI-1640 without additives. Phenazine methosulfate (PMS) solution was prepared at 0.15 mg/mL in DPBS and stored in the dark at −20° C. XTT/PMS stock was prepared immediately before use by adding 40 μL of PMS per mL of XTT solution. Fifty μL (50 μL) of XTT/PMS was added to each well of the plate and the plate incubated for 4 hours at 37° C. The 4-hour incubation has been empirically determined to be within the linear response range for XTT dye reduction with the indicated numbers of cells for each assay. The plates were sealed and inverted several times to mix the soluble formazan product and the plate was read at 450 nm (650 nm reference wavelength) with a Molecular Devices SpectraMax Plus 384 96 well plate format spectrophotometer.
# (§5) Microsoft Excel 2010 in combination with XLfit4 was used to analyze and graph the data. EC50 (50% inhibition of virus replication), TC50 (50% reduction in cell viability) and a therapeutic index (TC50/EC50) are provided. Raw data for both antiviral activity and toxicity with a graphic representation of the data are provided in a printout summarizing the compound activity.
# MT-4 cells = experiment: Cellular toxicity in MT-4 cells (XTT staining); settings: 6 days incubation, read-out: TC50 (50% reduction in cell viability)
# Method: as §1, §2, §3, §4, §5
# [1] = Cellular toxicity in MT-4 cells (XTT staining); settings: human, 6 days incubation, read-out: TC50 (50% reduction in cell viability)
# Method: as §1, §2, §3, §4, §5
# [2] = Human immunodeficiency virus 1, MT4, 144 h
Compound,Therapeutic Index (TC50/EC50) (HIV-1IIIB),EC50 (HIV-1IIIB) [nM],CC50 (MT-4 cells) [nM],EC50 (HIV-1IIIB; [2]) [nM],CC50 at 6 days [1] [nM]
"Cn1nc(NS(C)(=O)=O)c2c(Cl)ccc(-n3c([C@H](Cc4cc(F)cc(F)c4)NC(=O)Cn4nc(C(F)(F)F)c5c4C(F)(F)[C@@H]4C[C@H]54)nc4ncsc4c3=O)c21 (atropisomer, axis not shown) [Compound 36]",>625.0,0.16,> 100,,
"CS(=O)(=O)Nc1nn(CC(F)(F)F)c2c(-n3c([C@H](Cc4cc(F)cc(F)c4)NC(=O)Cn4nc(C(F)(F)F)c5c4C(F)(F)[C@@H]4C[C@H]54)nc4ncsc4c3=O)ccc(Cl)c12 (atropisomer, axis not shown) [Compound 31]",>384.6,0.26,> 100,,
"Cn1nc(NS(C)(=O)=O)c2c(Cl)ccc(-n3c([C@H](Cc4cc(F)cc(F)c4)NC(=O)Cn4nc(C(F)(F)F)c5c4C(F)(F)[C@@H]4C[C@H]54)nc4sccc4c3=O)c21 (atropisomer, axis not shown) [Compound 33]",>294.1,0.34,> 100,,
"Cn1nc(NS(C)(=O)=O)c2c(Cl)ccc(-n3c([C@H](Cc4cc(F)cc(F)c4)NC(=O)Cn4nc(C(F)(F)F)c5c4C(F)(F)[C@@H]4C[C@H]54)nc4c(c3=O)CCCN4)c21 (atropisomer, axis not shown) [Compound 34]",>42.6,,,2.35,> 100
CC1(C)CN(c2nc3nc([C@H](Cc4cc(F)cc(F)c4)NC(=O)Cn4nc(C(F)(F)F)c5c4C(F)(F)[C@@H]4C[C@H]54)n(-c4ccc(Cl)c5c(NS(C)(=O)=O)nn(CC(F)(F)F)c45)c(=O)c3s2)CCO1 (racemic) [Compound 52],>653.6,,,0.153,> 100
Cn1nc(NS(C)(=O)=O)c2c(Cl)ccc(-n3c([C@H](Cc4cc(F)cc(F)c4)NC(=O)Cn4nc(C(F)(F)F)c5c4C(F)(F)[C@@H]4C[C@H]54)nc4nc(NCCC(F)(F)F)sc4c3=O)c21 [Compound 49],>458.7,,,0.218,> 100
"Cn1nc(NS(C)(=O)=O)c2c(Cl)ccc(-n3c([C@H](Cc4cc(F)cc(F)c4)NC(=O)Cn4nc(C(F)(F)F)c5c4C(F)(F)[C@@H]4C[C@H]54)nc4ncsc4c3=O)c21 (atropisomer, axis not shown) [Compound 35]",,> 100,,,> 100
CS(=O)(=O)Nc1nn(CC(F)(F)F)c2c(-n3c([C@H](Cc4cc(F)cc(F)c4)NC(=O)Cn4nc(C(F)(F)F)c5c4C(F)(F)[C@@H]4C[C@H]54)nc4sccc4c3=O)ccc(Cl)c12 [Compound 1],>312.5,,,0.32,> 100
"Cn1nc(NS(C)(=O)=O)c2c(Cl)ccc(-n3c([C@H](Cc4cc(F)cc(F)c4)NC(=O)Cn4nc(C(F)(F)F)c5c4C(F)(F)[C@@H]4C[C@H]54)nc4nc(N5CCOC(C)(C)C5)sc4c3=O)c21 (atropisomer, axis not shown) [Compound 40]",>492.6,,,0.203,> 100
Cn1nc(NS(C)(=O)=O)c2c(Cl)ccc(-n3c([C@H](Cc4cc(F)cc(F)c4)NC(=O)Cn4nc(C(F)(F)F)c5c4C(F)(F)C4CC54)nc4nc(S(C)(=O)=O)sc4c3=O)c21 (stereo partly shown) [Compound 29],>2.9,34.9,,,> 100
"Cn1nc(NS(C)(=O)=O)c2c(Cl)ccc(-n3c([C@H](Cc4cc(F)cc(F)c4)NC(=O)Cn4nc(C(F)(F)F)c5c4C(F)(F)[C@@H]4C[C@H]54)nc4sc(-c5ccc(F)cc5)cc4c3=O)c21 (atropisomer, axis not shown) [Compound 42]",>26.4,,,3.79,> 100
CN(CCC(F)(F)F)c1nc2nc([C@H](Cc3cc(F)cc(F)c3)NC(=O)Cn3nc(C(F)(F)F)c4c3C(F)(F)[C@@H]3C[C@H]43)n(-c3ccc(Cl)c4c(NS(C)(=O)=O)nn(C)c34)c(=O)c2s1 [Compound 50],>1136.4,,,0.088,> 100
Cn1nc(NS(C)(=O)=O)c2c(Cl)ccc(-n3c([C@H](Cc4cc(F)cc(F)c4)NC(=O)Cn4nc(C(F)(F)F)c5c4C(F)(F)[C@@H]4C[C@H]54)nc4cc(N5CCCC5)sc4c3=O)c21 [Compound 39],>5.4,,,18.6,> 100
CS(=O)(=O)Nc1nn(CC(F)(F)F)c2c(-n3c([C@H](Cc4cc(F)cc(F)c4)NC(=O)Cn4nc(C(F)(F)F)c5c4C(F)(F)[C@@H]4C[C@H]54)nc4ncsc4c3=O)ccc(Cl)c12 [Compound 3],>625.0,,,0.16,> 100
Cn1nc(NS(C)(=O)=O)c2c(Cl)ccc(-n3c([C@H](Cc4cc(F)cc(F)c4)NC(=O)Cn4nc(C(F)(F)F)c5c4C(F)(F)[C@@H]4C[C@H]54)nc4sc(CC(F)(F)F)cc4c3=O)c21 [Compound 43],>31.7,,,3.15,> 100
"Cn1nc(NS(C)(=O)=O)c2c(Cl)ccc(-n3c([C@H](Cc4cc(F)cc(F)c4)NC(=O)Cn4nc(C(F)(F)F)c5c4C(F)(F)[C@@H]4C[C@H]54)nc4nc(OCCC(F)(F)F)sc4c3=O)c21 (atropisomer, axis not shown) [Compound 53]",>980.4,,,0.102,> 100
"Cn1nc(NS(C)(=O)=O)c2c(Cl)ccc(-n3c([C@H](Cc4cc(F)cc(F)c4)NC(=O)Cn4nc(C(F)(F)F)c5c4C(F)(F)[C@@H]4C[C@H]54)nc4sccc4c3=O)c21 (atropisomer, axis not shown) [Compound 32]",,> 100,,,> 100
"Cn1nc(NS(C)(=O)=O)c2c(Cl)ccc(-n3c([C@H](Cc4cc(F)cc(F)c4)NC(=O)Cn4nc(C(F)(F)F)c5c4C(F)(F)[C@@H]4C[C@H]54)nc4onc(-c5ccccc5)c4c3=O)c21 (atropisomer, axis not shown) [Compound 37]",>9.0,11.1,,,> 100
"Cn1nc(NS(C)(=O)=O)c2c(Cl)ccc(-n3c([C@H](Cc4cc(F)cc(F)c4)NC(=O)Cn4nc(C(F)(F)F)c5c4C(F)(F)[C@@H]4C[C@H]54)nc4nc(N5CC6(COC6)C5)sc4c3=O)c21 (atropisomer, axis not shown) [Compound 41]",>193.4,,,0.517,> 100
COCCNc1nc2nc([C@H](Cc3cc(F)cc(F)c3)NC(=O)Cn3nc(C(F)(F)F)c4c3C(F)(F)[C@@H]3C[C@H]43)n(-c3ccc(Cl)c4c(NS(C)(=O)=O)nn(C)c34)c(=O)c2s1 [Compound 46],>510.2,,,0.196,> 100
Cn1nc(NS(C)(=O)=O)c2c(Cl)ccc(-n3c([C@H](Cc4cc(F)cc(F)c4)NC(=O)Cn4nc(C(F)(F)F)c5c4C(F)(F)[C@@H]4C[C@H]54)nc4nc(NCCO)sc4c3=O)c21 [Compound 47],>83.3,,,1.2,> 100
"Cc1nsc2nc([C@H](Cc3cc(F)cc(F)c3)NC(=O)Cn3nc(C(F)(F)F)c4c3C(F)(F)[C@@H]3C[C@H]43)n(-c3ccc(Cl)c4c(NS(C)(=O)=O)nn(C)c34)c(=O)c12 (atropisomer, axis not shown) [Compound 44]",>2.9,34.1,,,> 100
Cn1nc(NS(C)(=O)=O)c2c(Cl)ccc(-n3c([C@H](Cc4cc(F)cc(F)c4)NC(=O)Cn4nc(C(F)(F)F)c5c4C(F)(F)[C@@H]4C[C@H]54)nc4nc(N5CCOCC5)sc4c3=O)c21 [Compound 51],>518.1,,,0.193,> 100
"CN(C)c1nc2nc([C@H](Cc3cc(F)cc(F)c3)NC(=O)Cn3nc(C(F)(F)F)c4c3C(F)(F)[C@@H]3C[C@H]43)n(-c3ccc(Cl)c4c(NS(C)(=O)=O)nn(C)c34)c(=O)c2s1 (atropisomer, axis not shown) [Compound 48]",>432.9,,,0.231,> 100
